From patent publication US11926625B2, “HPK1 antagonists and uses thereof” (Nimbus Saturn, Inc., priority 2021, dated 2024)

Molecular target: T1, HPK1 (Homo sapiens, UniProt Q92918)
T1 construct: purchased Invitrogen
Assay: HPK1 biochemical enzyme assay (microfluidic mobility shift, Caliper)
Settings: 1.5 nM HPK1 (Invitrogen), 1 mM ATP, 30 min preincubation, 60 min at RT, top concentration 3 μM; read-out: HPK1 1000UMATP caliper IC50
Method: Example 20. HPK1 Biochemical Enzyme Assay
HPK1 biochemical enzyme assay: HPK1 enzyme inhibition was measured using a microfluidic mobility shift assay. Reactions were performed in a 384-well plate, containing 1.5 nM HPK1 (Invitrogen), in assay buffer (Cama Biosciences; pH 7.4). Test compounds were titrated in ten point curves (top final assay concentration 3 μM), and preincubated with enzyme/substrate mix for 30 min prior to initiation of the reaction by addition of ATP (1 mM final concentration) and substrate (1 μM final concentration; Carna Biosciences) diluted in assay buffer supplemented by MgCl2 (final assay concentration of 5 mM). Following 60 min incubation at RT, the reaction was terminated by addition of 60 μl/well termination buffer (Carna Biosciences) and signal determination using a Caliper EZ Reader (Perkin Elmer, UK).

T1 sequence (Q92918 whole entry): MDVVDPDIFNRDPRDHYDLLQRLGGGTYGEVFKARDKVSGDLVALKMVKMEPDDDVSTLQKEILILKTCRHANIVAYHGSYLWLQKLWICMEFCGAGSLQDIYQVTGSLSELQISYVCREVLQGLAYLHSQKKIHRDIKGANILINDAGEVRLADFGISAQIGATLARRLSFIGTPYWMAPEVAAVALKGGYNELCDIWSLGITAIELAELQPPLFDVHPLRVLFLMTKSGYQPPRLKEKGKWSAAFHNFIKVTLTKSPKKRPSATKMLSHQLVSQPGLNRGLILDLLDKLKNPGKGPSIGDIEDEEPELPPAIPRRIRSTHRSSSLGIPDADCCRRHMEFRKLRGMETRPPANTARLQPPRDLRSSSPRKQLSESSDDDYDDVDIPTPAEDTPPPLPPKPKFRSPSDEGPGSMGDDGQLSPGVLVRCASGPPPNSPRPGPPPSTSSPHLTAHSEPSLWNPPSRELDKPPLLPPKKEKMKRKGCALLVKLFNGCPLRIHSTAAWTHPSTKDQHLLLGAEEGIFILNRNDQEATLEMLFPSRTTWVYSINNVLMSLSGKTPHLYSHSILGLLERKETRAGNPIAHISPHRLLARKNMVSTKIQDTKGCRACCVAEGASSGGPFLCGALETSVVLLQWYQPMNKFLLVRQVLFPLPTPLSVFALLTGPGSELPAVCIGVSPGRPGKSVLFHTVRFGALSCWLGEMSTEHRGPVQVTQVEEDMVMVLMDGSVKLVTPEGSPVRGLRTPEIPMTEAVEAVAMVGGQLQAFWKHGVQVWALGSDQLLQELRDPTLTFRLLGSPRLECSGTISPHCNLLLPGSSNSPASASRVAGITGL

SMILES	IC50 [µM]
O=C1NCc2c(-c3ccncc3)ncc(Nc3ccc(N4CCC(O)CC4)cn3)c21 [Compound I-13, 7-[[5-(4-hydroxy-1-piperidyl)-2-pyridyl]amino]-4-(4-pyridyl)-2,3-dihydropyrrolo [3,4-c]pyridin-1-one]	1 to 5
CCc1cnc(N)nc1-c1ccc(Nc2ccc(N3CCN(C)CC3)cn2)c2c1CNC2=O [Compound I-86, 4-(2-amino-5-ethylpyrimidin-4-yl)-7-((5-(4-methylpiperazin-1-yl)pyridin-2-yl)amino) isoindolin-1-one]	1 to 5
CN1CCN(c2ccc(Nc3ccc(-c4ccncc4)c4c3C(=O)NC4)nc2)CC1 [Compound I-25, 7-[[5-(4-methylpiperazin-1-yl)-2-pyridyl]amino]-4-(4-pyridyl) isoindolin-1-one]	< 1
CN1CCN(c2ccc(Nc3ccc(-c4ccnc(C5CCOCC5)n4)c4c3C(=O)NC4)nc2)CC1 [Compound I-62, 7-((5-(4-methylpiperazin-1-yl)pyridin-2-yl)amino)-4-(2-(tetrahydro-2H-pyran-4-yl)pyrimidin-4-yl)isoindolin-1-one]	1 to 5
CC(=O)N1CCN(c2cc(-c3ccc(Nc4ccc(N5CCN(C)CC5)cn4)c4c3CNC4=O)ccn2)CC1 [Compound I-43, 4-[2-(4-acetylpiperazin-1-yl)-4-pyridyl]-7-[[5-(4-methylpiperazin-1-yl)-2-pyridyl]amino] isoindolin-1-one]	1 to 5
CN1CCN(c2ccc(Nc3cnc(-c4ccncc4)c4c3C(=O)NC4)nc2)CC1 [Compound I-15, 7-[[5-(4-methylpiperazin-1-yl)-2-pyridyl]amino]-4-(4-pyridyl)-2,3-dihydropyrrolo [3,4-c]pyridin-1-one]	1 to 5
Cn1c(-c2ccc(Nc3ccc(N4CCNCC4)cn3)c3c2CNC3=O)cnc1-c1ccccc1 [Compound I-78, 4-(1-methyl-2-phenyl-1H-imidazol-5-yl)-7-((5-(piperazin-1-yl)pyridin-2-yl)amino) isoindolin-1-one]	< 1
CNc1cc(-c2ccc(Nc3ccc(N4CCN(C)CC4)cn3)c3c2CNC3=O)ncn1 [Compound I-48, 4-[6-(methylamino)pyrimidin-4-yl]-7-[[5-(4-methylpiperazin-1-yl)-2-pyridyl]amino] isoindolin-1-one]	< 1
CN1CCN(c2ccc(Nc3ccc(-c4ccnc(N5CCOCC5)c4)c4c3C(=O)NC4)nc2)CC1 [Compound I-32, 7-[[5-(4-methylpiperazin-1-yl)-2-pyridyl]amino]-4-(2-morpholino-4-pyridyl) isoindolin-1-one]	< 1
CNC1CCN(c2ccc(Nc3ccc(-c4ccncc4)c4c3C(=O)NC4)nc2)CC1 [Compound I-53, 7-[[5-[4-(methylamino)-1-piperidyl]-2-pyridyl]amino]-4-(4-pyridyl) isoindolin-1-one]	< 1
CNc1cc(-c2ncc(Nc3ccc(N4CCN(C)CC4)cn3)c3c2CNC3=O)ccn1 [Compound I-56, 4-(2-(methylamino)pyridin-4-yl)-7-((5-(4-methylpiperazin-1-yl)pyridin-2-yl)amino)-2,3-dihydro-1H-pyrrolo[3,4-c]pyridin-1-one]	< 1
Cc1ncc(-c2ccc(Nc3ccc(N4CCNCC4)cn3)c3c2CNC3=O)n1C [Compound I-72, 4-(1,2-dimethyl-1H-imidazol-5-yl)-7-((5-(piperazin-1-yl)pyridin-2-yl)amino) isoindolin-1-one]	< 1
O=C1NCc2c(C3CC3)ncc(Nc3ccc(N4CCNCC4)cn3)c21 [Compound I-12, 4-cyclopropyl-7-[(5-piperazin-1-yl-2-pyridyl)amino]-2,3-dihydropyrrolo [3,4-c]pyridin-1-one]	1 to 5
O=C1NCc2c(-c3ccncc3)ccc(Nc3ccc(N4CCC(O)CC4)cn3)c21 [Compound I-28, 7-[[5-(4-hydroxy-1-piperidyl)-2-pyridyl]amino]-4-(4-pyridyl) isoindolin-1-one]	< 1
COc1cccc(-c2ncc(Nc3ccc(N4CCNCC4)cn3)c3c2CNC3=O)c1OC [Compound I-20, 4-(2,3-dimethoxyphenyl)-7-[(5-piperazin-1-yl-2-pyridyl)amino]-2,3-dihydropyrrolo [3,4-c]pyridin-1-one]	1 to 5
COc1ccc(-c2ncc(Nc3ccc(N4CCNCC4)cn3)c3c2CNC3=O)cc1 [Compound I-6, 4-(4-methoxyphenyl)-7-[(5-piperazin-1-yl-2-pyridyl)amino]-2,3-dihydropyrrolo [3,4-c]pyridin-1-one]	1 to 5
CN1CCN(c2ccc(Nc3ccc(-c4cn[nH]c4)c4c3C(=O)NC4)nc2)CC1 [Compound I-84, 7-((5-(4-methylpiperazin-1-yl)pyridin-2-yl)amino)-4-(1H-pyrazol-4-yl)isoindolin-1-one]	< 1
CN1CCN(c2ccc(Nc3ccc(-c4ccnc(C5CCCOC5)c4)c4c3C(=O)NC4)nc2)CC1 (centres unmarked) [Compound I-66, 7-((5-(4-methylpiperazin-1-yl)pyridin-2-yl)amino)-4-(2-(tetrahydro-2H-pyran-3-yl)pyridin-4-yl)isoindolin-1-one]	1 to 5
CN1CCN(c2ccc(Nc3ccc(-c4ccnc(C#CC5CCCCC5)c4)c4c3C(=O)NC4)nc2)CC1 [Compound I-63, 4-(2-(cyclohexylethynyl)pyridin-4-yl)-7-((5-(4-methylpiperazin-1-yl)pyridin-2-yl)amino) isoindolin-1-one]	< 1
CN1CCN(c2ccc(Nc3ccc(-c4ccnc(C#C[C@H]5CCCO5)c4)c4c3C(=O)NC4)nc2)CC1 [Compound I-85]	< 1
Cc1cc(-c2ccc(Nc3ccc(N4CCN(C)CC4)cn3)c3c2CNC3=O)cc(=O)[nH]1 [Compound I-57, 4-(6-methyl-2-oxo-1,2-dihydropyridin-4-yl)-7-((5-(4-methylpiperazin-1-yl)pyridin-2-yl)amino) isoindolin-1-one]	< 1
CN1CCN(c2ccc(Nc3ccc(-c4ccnc(N5CCC6(CCOCC6)CC5)c4)c4c3C(=O)NC4)nc2)CC1 [Compound I-33, 7-[[5-(4-methylpiperazin-1-yl)-2-pyridyl]amino]-4-[2-(3-oxa-9-azaspiro[5. 5]undecan-9-yl)-4-pyridyl] isoindolin-1-one]	1 to 5
CN1CCN(c2ccc(Nc3ccc(-c4ccnc(N5CCC(C#N)CC5)c4)c4c3C(=O)NC4)nc2)CC1 [Compound I-37, 1-[4-[7-[[5-(4-methylpiperazin-1-yl)-2-pyridyl]amino]-1-oxo-isoindolin-4-yl]-2-pyridyl] piperidine-4-carbonitrile]	< 1
CN1CCN(c2ccc(Nc3ccc(-c4ccnc(N5CCCCC5)c4)c4c3C(=O)NC4)nc2)CC1 [Compound I-34, 7-[[5-(4-methylpiperazin-1-yl)-2-pyridyl]amino]-4-[2-(1-piperidyl)-4-pyridyl] isoindolin-1-one]	< 1
Cn1cc(-c2ccc(Nc3ccc(N4CCNCC4)cn3)c3c2CNC3=O)nc1-c1ccccc1 [Compound I-88, 4-(1-methyl-2-phenyl-1H-imidazol-4-yl)-7-((5-(piperazin-1-yl)pyridin-2-yl)amino) isoindolin-1-one]	1 to 5
CCc1cnc(C)cc1-c1ncc(Nc2ccc(N3CCNCC3)cn2)c2c1CNC2=O [Compound I-21, 4-(5-ethyl-2-methyl-4-pyridyl)-7-[(5-piperazin-1-yl-2-pyridyl)amino]-2,3-dihydropyrrolo [3,4-c]pyridin-1-one]	1 to 5
